Test [1] relates to amyloid aggregates. The following applies: González-Lizárraga (2017), Medina (2021); cited from earlier work.
Test [2] has as its target T1, AS fibers (Homo sapiens, UniProt P37840).
T1 construct: made in house; host or cells: E. coli BL21
Description: Cyclic voltammetry with gold biosensors modified with Doxy-5. It is filed as binding. On the procedure:
A comparative study for different crosslinking agents for the immobilization of Doxy-5 on gold conductive surfaces was performed. 3-mercaptopropionic acid (MPA), which is able to form self-assembled monolayers (SAM) on the substrate thus facilitating its functionalization, was used. Gold was chosen because it is inert for the molecule of interest. Additionally, the use of other agents such as 1-ethyl-3-(3-dimethylaminopropyl) carbodiimide hydrochloride (EDC) and N-hydroxysuccinimide (NHS), either for generating or activating present moieties, is necessary for the formation of covalent bonds with Doxy-5. Concentrations and incubation times were optimized in each modification stage of the gold surface.
Cyclic voltammetry (CV) measurements were first carried out to characterize each of the immobilization stages on a gold substrate. Said measurements were carried out in a cell with tripolar configuration using a platinum electrode as counter electrode, a silver/silver chloride reference electrode, and the modified gold electrodes as working electrodes. The electrolyte [Fe(CN)6]K4, containing the Fe^3+/Fe^2+ redox pair, was used in every characterization assay. […] CV and EIS measurements were also performed in each immobilization stage using phosphate buffer (PBS) at pH 7.4 (FIG. 1). […]

Test [3] concerns the target T2, fibrillar AS (Homo sapiens, UniProt P37840).
T2 construct: made in house; host or cells: E. coli BL21
Nature of the test: Sandwich immunoassay, Doxy-5 adsorbed on polystyrene microplates. The class given is binding. As to the method:
The design is based on an immunoassay with a conventional sandwich system involving the capture of fibrillar species of AS by Doxy-5, followed by detection with two antibodies: an anti-human AS antibody, and an antibody conjugated to a peroxidase. Briefly, the compound of formula (II) is incubated in polystyrene microplates wherein it is adsorbed. After several rinses, to eliminate any non-adsorbed molecules, the system is incubated with a primary anti-human AS rabbit antibody. After rinsing, the system is then incubated with a secondary anti-rabbit antibody conjugated to peroxidase. The conjugated antibody reacts specifically with the primary antibodies which are bound to the immunocaptured AS. […] After incubating, a blue color develops, whose intensity depends on the concentration and the affinity of Doxy-5 to the AS species. The enzymatic reaction is stopped by the addition of sulfuric acid, which produces a color shift towards yellow which is spectrometrically quantifiable at 450 nm.
(§1) The 96-well polystyrene plate was sensitized by incubation overnight a 4° C. and protected from light with 20 μg/mL of the compound of formula (II) in 20 mM sodium acetate pH 5 (50 μL/well). The plate was rinsed with PBST (PBS 10 mM pH 7.4+Tween-80 0.01%) and blocked with 150 μL/well of a 0.1% lysozyme solution in PBS 10 mM pH 7.4 during 1 h at 37° C. After rinsing, 50 μL of the samples with the analytes of interest prepared in 10 mM PBS pH 7.4 were added to each well, and the plate was incubated at 37° C. for 2 h. […] Immediately thereafter, the developed absorbance is measured with a TECAN Spark microplate reader.
The focus of the immunoassay takes advantage of the generation of a colored compound by action of the peroxidase on the substrate (TMB), which is proportional to the concentration of the AS analytes captured by Doxy-5. The absorbance readings at 450 nm were acquired with a TECAN Spark microplate reader. […]

The target of test [4] is T3, AS PFF (Homo sapiens, UniProt P37840).
T3 construct: made in house; host or cells: E. coli BL21
Description: Comparative binding of immobilized doxycycline hyclate and Doxy-5 to AS aggregates. Particulars: AS aggregates 20 ng/ml; polystyrene microplates; FIG. 8. On the procedure:
as §1, with “h. The plate is then rinsed again, and 50 μL of the anti-AS antibody diluted to 1 μg/ml in 10% bovine fetal serum (BFS in 10 mM PBS pH 7.4) were added to each well, after which the plate was incubated 1.5 h. The plate was rinsed once more and incubated at 37° C. during 1 h with 50 μL/well of the antibody conjugated with peroxidase diluted to 1 μg/ml in 10% bovine fetal serum.” for “h.”
Both doxycycline hyclate and Doxy-5 were immobilized on polystyrene microplates and contacted with AS aggregates (PPF) according to the protocol described in Example 4, using a concentration for the AS aggregates of 20 ng/ml. The binding of the AS aggregates to each molecule was determined as described in Example 4 as well.

Test [5] has as its system Tau aggregates (PFF). Nature of the test: Immunoassay, Doxy-5 bound to BSA through glutaraldehyde on polystyrene microplate. The class given is binding. Particulars: Taum 100 ng/ml, PFF 1/10000 dilution; Doxy-5 40 μg/ml; FIG. 6. On the procedure: The sensitization of the wells was carried out as follows: first, the binding sites of the microplate were blocked with albumin. Afterwards, compound of formula (II) was covalently linked to albumin by using glutaraldehyde as the linker.
For this purpose, a 96-well polystyrene microplate was incubated with 150 μL/well of 1% bovine serum albumin (BSA) overnight at 4° C. in a humid chamber. Then, after three cycles of washing with PBST, 50 μL/well of glutaraldehyde at different concentrations (0.1%, 0.5% and 1%) were added to the wells and the plate was kept during specified times (either 10 minutes for every concentration, or 5 minutes for 0.5% and 1%) under a hood. Wells were then washed three times with PBS, and 50 μL/well of Doxy-5 (40 μg/ml) were added. The plate was then incubated at 37° C. for 30 minutes, protected from light. Afterwards, the wells were washed again with PBST, and 50 μL/well of 1M TRIS was added as a glutaraldehyde-inactivating agent. The microplate was then incubated at 37° C. for 30 minutes. […] To stop the reaction, 25 μL/well of 2N H2SO4 were added, and the microplate was immediately read on a microplate reader (Tecan Spark, Austria) at the wavelength of 450 nm.

In the case of `Nc1c(/N=N/c2ccc(-c3ccc(/N=N/c4cc(S(=O)(=O)O)c5ccccc5c4N)cc3)cc2)cc(S(=O)(=O)O)c2ccccc12` [Congo red], the “binding to amyloid aggregates structures” value in test [1] is “strong and specific binding”.

As to `C[C@H]1c2ccc(N)c(O)c2C(=O)C2=C(O)[C@]3(O)C(=O)C(C(N)=O)=C(O)CC3[C@@H](O)C21` (stereo partly shown) [Doxy-5, 9-amino-4-dedimethylamino doxycycline], the “electrochemical response of the sensor in the presence of the AS fibers (oxidation peak of voltammogram)” value in test [2] (CV, -0.6 V to 0.6 V, 30 mV/seg, Doxy-5 on MPA-SAM gold electrode) is on record as “clear electrochemical response”. Moreover, in test [2] (monomer up to 100 ng/ml, response lower than fibers at 0.1 ng/mL), the “interference of the AS monomer in CV response” value is reported as “non-existing interference of the monomer”. Also, in test [3] (native AS as negative control), the “cross-reaction with native (monomeric) AS” value is listed as “no cross-reaction”. Moreover, in test [3] (wells sensitized with Doxy-5), the “AS concentrations showing the best differential reactivity between aggregated and monomeric species” value is listed as “over 30 ng/mL”. In addition, the “affinity towards fibrillar AS” value in test [3] (wells sensitized with Doxy-5, absorbance 450 nm) is on record as “nanomolar affinity”. The “signal for binding to AS PFF” value in test [4] was “significantly higher”. The “discrimination between Tau monomer (Taum) and pre-formed fibrils (PFF), signal at 450 nm” value in test [5] is “higher signal for PFF compared with Taum and PBS”.

Consider `Cc1ccc2c(c1)sc(-c1ccc(N(C)C)cc1)[n+]2C.[Cl-]` [Thioflavin T], for which, in test [1], the “binding to amyloid aggregates structures” value was “strong and specific binding”.

As to “doxycycline hyclate [reference compound]”, in test [4], the “signal for binding to AS PFF” value was “positive signal”.

The record behind these values is patent US20250305982A1, “DEVICE AND METHOD FOR THE DETECTION OF BIOMARKERS ASSOCIATED WITH NEURODEGENERATIVE DISEASES” (CONSEJO NACIONAL DE INVESTIGACIONES CIENTÍFICAS Y TÉCNICAS …, priority 2022, published 2025).
